Article PMC6028453, “BrlR from Pseudomonas aeruginosa is a receptor for both cyclic di-GMP and pyocyanin” (Nature Communications, 2018)

What was measured:
BrlR mutant R31A = target: T1, BrlR mutant R31A (Pseudomonas aeruginosa, UniProt Q9HUT5, R31A); test: FP binding assay, BrlR R31A
T1 construct: His6-SUMO (N, cleaved yes); made in house; host or cells: E. coli BL21 DE3
Description: (§1) F-c-di-GMP and F-c-di-AMP both contain a fluorophore at one of the 2′-ribose hydroxyls of c-di-GMP and c-di-AMP, respectively (Fig. 2f). To measure the binding of c-di-GMP and c-di-AMP to BrlR variants, 1 nM F-c-di-GMP or F-c-di-AMP was incubated with increasing amounts of indicated BrlR WT, BrlR mutation, or BrlR-C in reaction buffer (25 mM HEPES, 100 mM NaCl, pH 7.5) at 25 °C for 20 min. 1 nM fluorescein was incubated with BrlR WT in the same reaction buffer at 25 °C. FP measurements were conducted on a Synergy 4 Microplate Reader (BioTek) at 25 °C. All experiments were performed in triplicate. The curves were fitted to deduce binding affinities by GraphPad Prism 5.
(§2) BrlR–c-di-GMPs interactions in two separate c-di-GMP binding sites
(§3) In the first binding site, c-di-GMP is half accommodated by the antiparallel β-sheet and two residues (M1 and D35). In detail, the backbone amide protons of the first M1 residue form a hydrogen bond (H-bond) with the phosphate oxygen atom of c-di-GMP, and the side chain of R31 forms two H-bonds with the Gua1 base. The residue D35 also forms an H-bond with the Gua1 base. The aromatic ring of Y40 interacts with the Gua1 base through a hydrophobic π-π interaction. In addition, the hydroxyl group of the Y270 side chain from another subunit interacts with the phosphate 2 of c-di-GMP via an H-bond (Fig. 2d). […]

[1] = test system: brlR promoter activity (C2E mut3); test: β-galactosidase assay, C2E mut3; assay type: cell-based, Pseudomonas aeruginosa
Description: (§4) We also performed β-galactosidase activity assays using a PbrlR-brlR-lacZ reporter construct to investigate the transcriptional function of BrlR mutants in vivo. […] To confirm the effect of c-di-GMP in P. aeruginosa, we carried out real-time quantitative PCR analyses. Following a previous report, we introduced the diguanylate cyclase PA4843 into a WT P. aeruginosa strain carrying either pHERD20T-empty or pHERD20T-PA4843. The transcription level of brlR was analyzed using the brlR 5 F and brlR 3 R primers (Supplementary Table 1). The transcriptional level of brlR in pHERD20T-PA4843 strain is 4.5 ± 1.3-fold higher than that in the pHERD20T-empty strain (Fig. 4h).
(§5) β-galactosidase activity was assayed with P. aeruginosa PA01 ΔbrlR strain carrying plasmid pME6522-borne transcriptional lacZ fusions. P. aeruginosa carrying the empty vector was used as the […]. The reporter plasmids are derivatives of the pME6522 plasmid in which multiple cloning sites were inserted before the LacZ with the promoter and coding regions of brlR with diverse mutations. These reporter plasmids were transformed into the reporter strain. Overnight cultures were diluted 20-fold with LB medium supplemented with appropriate antibiotics. […]

[2] = test system: brlR promoter activity (C2E mut2); test: β-galactosidase assay, C2E mut2; assay type: cell-based, Pseudomonas aeruginosa
Description: as §4, §5

BrlR mutant R86A = target: T2, BrlR mutant R86A (Pseudomonas aeruginosa, UniProt Q9HUT5, R86A); test: FP binding assay, BrlR R86A
T2 construct: His6-SUMO (N, cleaved yes); made in house; host or cells: E. coli BL21 DE3
Description: as §1, §2, §3

BrlR D35A DNA binding = target: T3, BrlR D35A DNA binding (Pseudomonas aeruginosa, UniProt Q9HUT5, D35A); test: EMSA, BrlR D35A; assay type: biochemical
T3 construct: His6-SUMO (N, cleaved yes); made in house; host or cells: E. coli BL21 DE3
Description: (§6) A 6-carboxy-fluorescein (FAM)-labeled 36-bp brlR promoter DNA (PbrlR) or 80-bp mexA/mexE promoter DNA (PmexA/PmexE) probes (~0.375 pmol), BrlR protein and varying amounts of inducers were incubated in binding buffer (10 mM Tris HCl [pH 7.4], 50 mM KCl, 1 mM DTT, […] and 5 ng/mL poly [dI-dC]) for 60 min at 25 °C. Finally, glycerol was added to a concentration of 6.5%. The samples were subjected to a 5% polyacrylamide gel electrophoresis and run in 0.5 × Tris-borate-EDTA buffer at 80 V for 1 h at room temperature. Imaging and data analyses were performed using a Typhoon Scanner (GE Healthcare) and Imagequant software. The probes used are listed in Supplementary Table 1.

BrlR mutant D35A = target: T4, BrlR mutant D35A (Pseudomonas aeruginosa, UniProt Q9HUT5, D35A); test: FP binding assay, BrlR D35A
T4 construct: His6-SUMO (N, cleaved yes); made in house; host or cells: E. coli BL21 DE3
Description: as §1, §2, §3

BrlR mutant Y270A = target: T5, BrlR mutant Y270A (Pseudomonas aeruginosa, UniProt Q9HUT5, Y270A); test: FP binding assay, BrlR Y270A
T5 construct: His6-SUMO (N, cleaved yes); made in house; host or cells: E. coli BL21 DE3
Description: as §1, §2, §3

[3] = test system: brlR promoter activity (C2E mut1); test: β-galactosidase assay, C2E mut1; assay type: cell-based, Pseudomonas aeruginosa
Description: as §4, §5

C2E mut2 DNA binding = target: T6, C2E mut2 DNA binding (Pseudomonas aeruginosa, UniProt Q9HUT5, R67A/R86A); test: EMSA, C2E mut2 with PbrlR DNA; assay type: biochemical
T6 construct: His6-SUMO (N, cleaved yes); made in house; host or cells: E. coli BL21 DE3
Description: as §6

BrlR R31A DNA binding = target: T7, BrlR R31A DNA binding (Pseudomonas aeruginosa, UniProt Q9HUT5, R31A); test: EMSA, BrlR R31A; assay type: biochemical
T7 construct: His6-SUMO (N, cleaved yes); made in house; host or cells: E. coli BL21 DE3
Description: as §6

T5 sequence (Q9HUT5 whole entry Y270A): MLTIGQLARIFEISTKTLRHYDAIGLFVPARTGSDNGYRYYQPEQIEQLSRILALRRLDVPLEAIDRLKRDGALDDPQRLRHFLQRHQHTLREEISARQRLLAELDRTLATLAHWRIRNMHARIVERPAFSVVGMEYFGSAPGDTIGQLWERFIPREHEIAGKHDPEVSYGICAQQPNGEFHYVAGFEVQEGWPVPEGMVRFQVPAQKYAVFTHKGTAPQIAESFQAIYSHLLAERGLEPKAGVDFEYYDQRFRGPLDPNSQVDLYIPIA
T6 sequence (Q9HUT5 whole entry R67A/R86A): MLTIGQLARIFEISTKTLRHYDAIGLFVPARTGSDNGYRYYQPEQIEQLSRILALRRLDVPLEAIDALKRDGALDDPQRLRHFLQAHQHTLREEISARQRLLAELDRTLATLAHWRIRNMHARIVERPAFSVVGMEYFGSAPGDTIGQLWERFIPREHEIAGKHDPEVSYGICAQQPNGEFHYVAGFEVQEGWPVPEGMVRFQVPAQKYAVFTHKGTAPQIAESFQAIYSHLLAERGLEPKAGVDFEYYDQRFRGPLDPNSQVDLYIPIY
T1 sequence (Q9HUT5 whole entry R31A): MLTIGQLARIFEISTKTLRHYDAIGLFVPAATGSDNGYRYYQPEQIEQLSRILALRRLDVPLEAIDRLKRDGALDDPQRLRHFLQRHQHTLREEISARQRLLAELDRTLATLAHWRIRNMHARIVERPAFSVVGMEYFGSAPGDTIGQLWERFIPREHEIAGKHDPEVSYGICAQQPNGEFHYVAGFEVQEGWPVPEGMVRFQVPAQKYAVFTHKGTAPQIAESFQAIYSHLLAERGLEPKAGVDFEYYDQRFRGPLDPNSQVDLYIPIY
T7 sequence (Q9HUT5 whole entry R31A): as above
T4 sequence (Q9HUT5 whole entry D35A): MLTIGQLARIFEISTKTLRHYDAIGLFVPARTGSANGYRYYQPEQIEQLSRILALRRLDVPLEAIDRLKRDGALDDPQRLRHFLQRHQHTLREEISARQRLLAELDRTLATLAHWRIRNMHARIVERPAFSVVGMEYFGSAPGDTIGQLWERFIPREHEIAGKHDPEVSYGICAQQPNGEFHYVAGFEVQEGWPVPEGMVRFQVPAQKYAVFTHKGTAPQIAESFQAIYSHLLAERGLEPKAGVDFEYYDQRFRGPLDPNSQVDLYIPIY
T3 sequence (Q9HUT5 whole entry D35A): as above
T2 sequence (Q9HUT5 whole entry R86A): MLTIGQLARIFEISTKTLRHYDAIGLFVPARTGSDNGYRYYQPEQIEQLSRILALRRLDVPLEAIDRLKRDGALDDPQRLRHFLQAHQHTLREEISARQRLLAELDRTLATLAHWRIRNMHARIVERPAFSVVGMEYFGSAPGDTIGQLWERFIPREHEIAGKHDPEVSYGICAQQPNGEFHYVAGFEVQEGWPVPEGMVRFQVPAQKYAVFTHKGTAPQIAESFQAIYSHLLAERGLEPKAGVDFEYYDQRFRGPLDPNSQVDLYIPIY

`Nc1nc2c(ncn2[C@@H]2O[C@@H]3COP(=O)(O)O[C@H]4[C@@H](O)[C@H](n5cnc6c(=O)[nH]c(N)nc65)O[C@@H]4COP(=O)(O)O[C@H]3[C@H]2O)c(=O)[nH]1` [c-di-GMP, cyclic diguanylate monophosphate] was tested, and the Kd (BrlR mutant R31A) was 42.7 ± 5.4 µM, the “response of β-galactosidase activity to increase in c-di-GMP concentration” value [1] was “no response” and the “increase at high vs low c-di-GMP concentration (β-galactosidase activity)” value [2] was 2.2 fold. For the same molecule, the “KD value (in words)” value (BrlR mutant R86A) was “like that of C2E mut2”, the “DNA bound in the presence vs absence of c-di-GMP” value (BrlR D35A DNA binding) was ~ 4.8 fold and the Kd (BrlR mutant D35A) was 17.5 ± 0.9 µM. For the same molecule, the Kd (BrlR mutant Y270A) was 40.8 ± 3.8 µM, the “increase at high vs low c-di-GMP concentration (β-galactosidase activity)” value [3] was 2.0 fold and the “BrlR-DNA complex in the presence vs absence of c-di-GMP” value (C2E mut2 DNA binding) was 1.9 fold. For the same molecule, the “DNA bound in the presence vs absence of c-di-GMP” value (BrlR R31A DNA binding) was ~ 1.3 fold.
